73 molecules from PubChem BioAssay AID179 (DTP/NCI, 2004) can be followed below.

SMILES strings stand for the structures. Counter-ions that a name gives are not always drawn. The source made the active and inactive calls.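 The calls were made as follows: active = compounds giving half or more protection of infected cells from virus-caused growth loss, again on retest; inactive = the rest.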 Where a SMILES comes first, the peptide text is derived from it. The star is where a group is joined. Tfa = O=C(C(F)(F)F)*

The test system of this test is CEM cells HIV-1 protection, formazan growth assay. As to the kind of experiment: NCI AIDS Antiviral Assay. The note with it: for IC50: measured here: growth of uninfected CEM cells. Summed up: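 Protection of CEM cells against HIV-1 measured as cell growth via soluble formazan read-out, with five concentrations tested on both infected and uninfected cells; failure to protect may reflect toxicity.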

In general, EC50 refers to the midpoint of the concentration-response curve. By IC50 is commonly meant the concentration that inhibits the measured activity by half. As for `C#CC(O)/C=C/C(O)CCCC(O)CC#CC(O)C#CC(O)CCCC(O)/C=C/CCCC(=O)CCCCCCCCCCCCCCCC(O)C(O)C#CC(=O)O` (centres undefined), the EC50 is 10 µM and the IC50 came out at 53.7 µM.

Consider `COc1c(Cl)cc(C(=CCN[C@@H]2CC[C@@]3(C)[C@@H](CC[C@@H]4[C@@H]3CC[C@]3(C)[C@@H]([C@H](C)CCCC(C)C)CC[C@@H]43)C2)c2cc(Cl)c(OC)c(C(=O)O)c2)cc1C(=O)O`, for which the EC50 was over 100 µM and the half-maximal inhibitory concentration (IC50) was 61.7 µM. For the molecule `CCCCCCCCCCCCCCCCCCn1[se]c2ccccc2c1=O`, the EC50 was over 3.24 µM and the IC50 is over 3.24 µM. `COc1ccc(C(=O)C(C(=O)CCC(=O)Nc2ccc(C)c(C)c2)c2ccc(OC)cc2)cc1` (centres undefined): the EC50 is over 21.9 µM and the IC50 is over 21.9 µM. As to `COC(=O)CC1c2ccccc2N2C(=O)Cc3c([nH]c4ccccc34)C12` (centres undefined), the EC50 was over 200 µM and the IC50 stood at 191 µM.

As to `O=C(O)Cn1cnc2c(=O)[nH]c(Nc3ccccc3)nc21`, the EC50 was over 200 µM and the IC50 is over 200 µM. Take `COc1ccc2c(c1)CCN1C3=C(CCC3)C(=O)C[C@@H]21`: the outcome was inactive. On to `C=C1CN(S(=O)(=O)c2ccc(C)cc2)CCN(C(=O)OC(C)(C)C)CCN(S(=O)(=O)c2ccc(C)cc2)C1`, for which the EC50 is over 200 µM and the IC50 stood at 20 µM. On the same counts, the results for `N#CC(CCN1CCC(Nc2ccccc2)(c2nnnn2C2CCCCC2)CC1)(c1ccccc1)c1ccccc1` are over 200 µM and over 200 µM. Take `COC(=O)c1c(COC(=O)NC(C)C)c2n(c1C)CS(=O)(=O)C2`: the EC50 is over 200 µM and the IC50 is over 200 µM.

As for `CC(=O)OCCNc1n[nH]c(=O)c2cnccc12`, the EC50 is over 1000 µM and the concentration for half-maximal inhibition (IC50) is over 1000 µM.

Turning to `COC(=O)CCc1cccnc1/C=N/O`, the EC50 is over 1200 µM and the IC50 stood at 126 µM. The corresponding values for `C/C=C(\C(=O)OC)C1CC2OC(=O)C1(C=O)C13CCNC21N(C)c1ccccc13` (centres undefined) are over 126 µM and 117 µM. The corresponding values for `CC1=C2C(=CO[C@H](C)[C@H]2C)C(=O)C(C(=O)O)=C1O` are over 145 µM and 25.1 µM. The corresponding values for `Cc1ccc(C)c(NC(=O)CC/C(=N\NC(=O)c2c(O)ccc3ccccc23)C(C)C(=O)c2ccc(O)cc2)c1` (centres undefined) are over 27.5 µM and 14.5 µM. With `CCOc1ccc(N=C(NC(=O)c2ccccc2)SC)cc1`, the EC50 was over 22.4 µM and the IC50 was over 22.4 µM. For the molecule `CC1NCCc2c1[nH]c1ccc(O)cc21` (centres undefined), the result was inactive. Same read-out and setting: in the case of `O=C(c1ccccn1)c1nc(-c2ccc(Cl)c(Cl)c2)nc2ccc(Cl)cc12` it was “inactive”. In the case of `COC(=O)C1=C(O)C(C(=O)OC)C2CC(=O)CC1C2(C)C` (centres undefined), the EC50 is over 200 µM and the IC50 was over 200 µM. Turning to `O=C1CCc2ccc3c(c21)CC1(Cc2ccccc2C1)C3`, the EC50 was over 200 µM and the IC50 was over 200 µM. Turning to `C=C(C)Cn1c(N)c(N=O)c(=O)n(CC)c1=O`, the EC50 was over 200 µM and the IC50 worked out at 158 µM.

For the molecule `N=C(N)SC12CC3CC(CC(C3)C1)C2`, the EC50 is over 200 µM and the IC50 was determined as 138 µM. With `CN1c2ccccc2N(C(=O)c2ccccc2)C(CC(=O)O)c2cccn21` (centres undefined), the EC50 is over 692 µM and the IC50 is 288 µM. On to `O=C(O)CCC1CCc2cccc(OCC(=O)O)c2C1=O` (centres undefined), for which the outcome was inactive. `COc1cc2nncc(Sc3cnnc4ccccc34)c2cc1OC`: the EC50 is over 61.7 µM and the IC50 turned out to be 7.59 µM.

In the case of `CS(=O)(=O)c1nc(NCCc2ccccc2)c2cnn(C3CCCCO3)c2n1` (centres undefined), the result was inactive.

`CN(C)c1ccc(SSc2ccc(N(C)C)cc2)cc1`: the EC50 was over 200 µM and the IC50 turned out to be 14.1 µM. `O=C(NNc1ccnc2cc(Cl)ccc12)/C(=C\c1ccccc1Cl)NC(=O)c1ccccc1`: the EC50 is over 100 µM and the IC50 came to 56.2 µM. Turning to `Cc1nc(-c2ccc([N+](=O)[O-])cc2)cn2c1nc1ccccc12`, the EC50 was 457 µM and the IC50 was 501 µM. On the same counts, the results for `CCCCCCCCCC1CC(=O)OC2=C1C(=O)CCC2` (centres undefined) are over 46.8 µM and over 46.8 µM.

As for `COc1ccc(N2C(=O)C3CC(c4ccc(Br)cc4)c4c([nH]c5ccccc45)C3C2=O)cc1` (centres undefined), the EC50 was over 14.5 µM and the IC50 was 11 µM. The corresponding values for `CCC[CH2][Sn]([CH2]CCC)([S]CCS(=O)(=O)O)[S]CCS(=O)(=O)O` are over 200 µM and 115 µM.

As to `COC1/C=C/OC2(C)Oc3c(C)c(O)c4c(O)c(c(/C=N/N=C(\N)N[N+](=O)[O-])c(O)c4c3C2=O)NC(=O)C(C)=C/C=C/C(C)C(O)C(C)C(O)C(C)C(OC(C)=O)C1C` (centres undefined), the result was inactive. As to `COC(=O)CC1(C(=O)OC)C2CCCN2C2(C#N)c3ccccc3CCC12Br` (centres undefined), the EC50 was over 41.7 µM and the IC50 was over 41.7 µM. In the case of `Nc1ccc(C(=O)N/C(=C\c2cccc([N+](=O)[O-])c2)c2nc3ccccc3[nH]2)cc1`, the result was inactive.

As to `CC1=C[C@H]2c3c([nH]c4ccccc34)C(c3c[nH]c4ccccc34)[C@H]2CC1` (some centres undefined), the outcome was inactive. Take `COc1cccc(NC(=O)C(=O)C2C=CCS2(=O)=O)c1` (centres undefined): the EC50 is over 63.1 µM and the IC50 is over 63.1 µM. `CCOC(=O)CCCc1cc(=O)c2c(C)c3[nH]c4ccc(Cl)cc4c3c(C)c2[nH]1`: the EC50 is over 200 µM and the IC50 was determined as 34.7 µM. Take `C=C1CN(C(=O)c2cc3cc(OC)c(OC)c(OC)c3[nH]2)c2cc([N+](=O)[O-])ccc21`: the EC50 was 26.9 µM and the IC50 is over 200 µM. For `Cc1noc2cccc(O)c12`, the result was inactive. `O=[N+]([O-])c1ccc(O)c(/C=N/NC(=S)N2CCCCC2)c1`: the EC50 is over 200 µM and the IC50 came to 2.95 µM. The corresponding values for `O=C(O)c1ccc2c[n+]3ccccc3cc2c1` are over 427 µM and over 427 µM. In the case of `CCN(CC)CCNc1ccc(CO)c2oc3ccc(O)cc3c(=O)c12`, the EC50 was over 191 µM and the IC50 is 1.32 µM. On the same counts, the results for `O=C(O)CC(NC(=O)C(F)(F)F)C(=O)NC(Cc1ccc(O)cc1)C(=O)O` (stereo not drawn) (Tfa-Asp-Tyr-OH; configuration not given here) are over 200 µM and over 200 µM.

For the molecule `CC(C)OCC(O)COc1cc(=O)oc2ccccc12` (centres undefined), the EC50 was over 200 µM and the IC50 is over 200 µM. On to `COc1ccc(S(=O)(=O)N(CC(=O)O)c2ccccc2)cc1`, for which the result was inactive. `c1cc(C[S+]2CCCC2)sc1C[S+]1CCCC1`: the result was inactive. Take `CC(C)C(=O)N[C@@H](C)C(=O)N(Cc1ccc2ccccc2c1)N=O`: the result was inactive. `COc1ccc2c(c1)-c1c(c3ccccc3n1CCN1CCOCC1)CC2`: the outcome was inactive. For the molecule `COC(=O)C1N=CSCC1(C)O` (centres undefined), the EC50 was over 1320 µM and the IC50 turned out to be 186 µM. Turning to `NC(=O)c1sc2nc3ccccc3n2c1N`, the EC50 was over 200 µM and the IC50 was over 200 µM. For `N#C[C@@H](c1ccccn1)c1ncccc1[N+](=O)[O-]`, the EC50 is over 200 µM and the IC50 is over 200 µM. For the molecule `Cc1ccc(/C=N/Nc2nc3ccccc3s2)s1`, the EC50 was over 200 µM and the IC50 turned out to be 67.6 µM.

`COC(=O)C(CC=O)C(=O)C(=O)Nc1cccc(C(F)(F)F)c1` (centres undefined): the EC50 was over 282 µM and the IC50 was over 282 µM. Take `O=C(c1ccccc1)C1CSS(=O)(=O)C1c1ccccc1` (centres undefined): the concentration for a half-maximal effect (EC50) was 27.5 µM and the IC50 was 91.2 µM.

In the case of `CC1(C)CC(=O)c2c(N)n[nH]c2C1`, the EC50 is 11.2 µM and the IC50 was over 200 µM.

Take `CC1OC(OC2C(O[C@H]3CC[C@@]4(C)C(=CC[C@H]5[C@@H]6C[C@@H]7O[C@](O)(CC[C@@H](C)COC8OC(CO)C(O)C(O)C8O)[C@@H](C)[C@@H]7[C@@]6(C)CC[C@@H]54)C3)OC(CO)C(O)C2OC2OC(CO)C(O)C(O)C2O)C(O)C(O)C1O` (some centres undefined): the EC50 is over 100 µM and the IC50 is 2.51 µM. Consider `CCN(CC)CCS(=O)c1c2cc(OC)ccc2nc2ccc(OC)cc12` (centres undefined), for which the EC50 was over 200 µM and the IC50 worked out at 3.39 µM. Turning to `O=C1CC2CCCC23CC2(CCN13)OCCO2` (centres undefined), the result was inactive. For the molecule `CC(=O)Nc1c(C)cc2c(nc3n2CCC3OC(C)=O)c1[N+](=O)[O-]` (centres undefined), the EC50 was over 200 µM and the IC50 was over 200 µM. Consider `CC(=O)OC1(C#N)CC2OC1C1C2N1C(=O)c1ccccc1` (centres undefined), for which the EC50 was over 316 µM and the IC50 is over 316 µM. On to `Cc1[nH]c(=S)[nH]c(=O)c1CCl`, for which the EC50 was over 200 µM and the IC50 was 107 µM. The corresponding values for `CC(=O)OC1C=C(C=O)C(O)(C=O)C2(C)CCCC(C)(C)C12` (centres undefined) are over 200 µM and 8.13 µM. The corresponding values for `COc1ccc2c(c1)c(=O)c1ccccc1n2/C=C/C(=O)O` are over 617 µM and 105 µM. The corresponding values for `CC(=O)O/N=C/c1ncccc1CO` are over 490 µM and 389 µM.

As for `CN1CCN(c2n[nH]c(=O)c3c2nnn3C2CCCCC2)CC1`, the EC50 was over 200 µM and the IC50 is over 200 µM. In the case of `Cc1cc(=O)oc2cc3c(cc12)CCCN3`, the EC50 was over 33.9 µM and the IC50 is over 33.9 µM. On to `COc1cc2c(cc1OC)-c1c3cc(O)ccc3nn[n+]1CC2`, for which the outcome was inactive. As for `N#CC1(C#N)C(c2ccc(C3C(C#N)(C#N)C3(C#N)C#N)cc2)C1(C#N)C#N`, the result was inactive.

Take `O=C(OC1CCC2OOC1O2)c1ccc([N+](=O)[O-])cc1` (centres undefined): the result was inactive. In the case of `Cc1cc(C)c2c(O)c(S(=O)(=O)c3ccc(Cl)cc3)c(=O)oc2c1`, the EC50 was over 200 µM and the IC50 was determined as 77.6 µM. On the same counts, the results for `CCOC(=O)C(C(=O)OCC)S(C)(=O)=O` are over 251 µM and over 251 µM. Turning to `O=C(O)C(O)(c1ccccc1)c1ccsc1` (centres undefined), the EC50 was over 200 µM and the IC50 was over 200 µM.
